Several values for one entry are separate records, joined by “and”; a condition that tells them apart may be missing. Equal entries are not always repeated.

One assay has as its target T1, glucocorticoid receptor (Mus musculus, UniProt P06537).
T1 construct: endogenous in cells; host or cells: LE II (mouse lung capillary endothelial) cells, 100,000 x g cytosol
T1 sequence (P06537 1-792): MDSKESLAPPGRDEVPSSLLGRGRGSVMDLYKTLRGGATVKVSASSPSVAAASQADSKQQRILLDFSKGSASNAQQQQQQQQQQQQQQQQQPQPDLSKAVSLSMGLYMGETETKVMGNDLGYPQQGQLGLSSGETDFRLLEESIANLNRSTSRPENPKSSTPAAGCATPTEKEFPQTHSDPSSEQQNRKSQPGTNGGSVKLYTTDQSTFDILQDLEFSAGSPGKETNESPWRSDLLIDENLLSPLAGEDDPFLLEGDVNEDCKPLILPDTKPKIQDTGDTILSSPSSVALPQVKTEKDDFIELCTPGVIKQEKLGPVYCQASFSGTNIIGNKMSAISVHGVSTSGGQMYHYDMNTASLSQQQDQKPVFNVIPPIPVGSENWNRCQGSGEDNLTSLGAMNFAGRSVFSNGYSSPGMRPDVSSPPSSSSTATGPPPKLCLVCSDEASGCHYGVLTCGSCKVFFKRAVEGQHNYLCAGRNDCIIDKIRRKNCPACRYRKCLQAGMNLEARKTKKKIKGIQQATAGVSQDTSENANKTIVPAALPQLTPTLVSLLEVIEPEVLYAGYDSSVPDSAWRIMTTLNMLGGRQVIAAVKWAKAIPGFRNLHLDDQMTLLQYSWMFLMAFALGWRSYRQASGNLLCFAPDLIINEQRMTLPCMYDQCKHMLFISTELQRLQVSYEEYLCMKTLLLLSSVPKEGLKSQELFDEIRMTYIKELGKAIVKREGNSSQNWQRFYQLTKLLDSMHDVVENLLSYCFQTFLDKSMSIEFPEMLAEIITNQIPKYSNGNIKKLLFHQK
The assay is described as follows: competition for 3H-dexamethasone binding sites in LE II cytosol (glucocorticoid receptor affinity). The note with it: Table 1; displacement of 25 nM 3H-DEX, LE II (mouse lung capillary endothelial) cytosol, 3 hours on ice; read-out: IC50 Binding LEII. As for the experimental part: LE II (mouse lung capillary endothelial) or HTC (rat hepatoma) cells were grown in Dulbecco's modified Eagle's (DMEM) medium plus 10% fetal calf serum (FCS), in 150 cm^2 T-flasks. Approximately 20 flasks of LE II cells or 10 flasks of HTC cells were needed for a 60-80 sample assay.
Cell monolayers were washed 3 times with Phosphate Buffered Saline (PBS) and harvested by scraping with a rubber policeman into an ice-cold sonication buffer of 0.25M sucrose; 10 mM Tris-HCl, pH 7.4; 5 mM ethylenediaminetetraacetic acid (EDTA); 5 mM dithiothereitol; and 10 mM sodium molybdate. All subsequent steps were performed at 4° C. The cells were pooled into a final volume of 8-12 mls, broken by sonication for 45 seconds with the microtip of a Branson sonifier at setting #3 and the residue was then centrifuged at 100,000 X g for 30 minutes with a Beckman L8-50, Ti50 rotor, at 40,000 rpm. […] Incubations were peformed in a final volume of 1 ml in 1.5 ml Eppendorf centrifuge tubes for 3 hours on ice.
Fine Sephadex G-50 gel was swollen and equilibrated against column buffer of 100 mM Tris-HCl, pH 7.8; and 3 mM CaCl2. Columns were poured to a final packed volume of 4.5 ml in 5 ml plastic disposable pipets.
The packed columns were then drained of buffer and the 1 ml incubated samples were applied to each. The samples were washed into the columns with 0.5 ml of column buffer, and the exclusion volumes containing the protein peaks were eluted with another 1 ml of column buffer and collected. Aliquots of 750 μl of Biorad protein reagent were diluted 1:5 in H2 O. OD630 nm reading were compared with those obtained for a bovine serum albumin standard curve.

The next assay deals with Epidermal Growth Factor. As to the kind of experiment: hamster cheek pouch (HCP) angiogenesis inhibition, EGF stimulus. Type of assay: in vivo, Male Syrian Golden hamsters. The conditions noted are these: Table 1; 10 μg EGF; between 0.5 and 4 mg/kg s.c. daily; each number independent result, average of six animals. As for the experimental part:
Each compound of the series was also tested for anti-angiogenic activity by an in vivo test that measured vascularization in a hamster's cheek pouch in response to either an angiogenic polypeptide growth factor, epidermal growth factor (EGF) or an induced […].
In this example, the in vivo angiogenesis inhibition activity of etianic acid esters was tested. Male Syrian Golden hamsters, weighing between 120 g and 150 g were anaesthetized by intraperitoneal (I.P.) injection of a rodent anaesthetic mixture consisting of 50 mg/kg ketamine hydrochloride, 5 mg/kg xylazine and 1 mg/kg acepromazine. The left cheek pouch of each animal was everted with a pincet and pinned down to a plexiglass-rubber stage and observed through a Zeiss stereomicroscope. 10 μg of EGF or 3×10^5 Hamster Melanoma RPM1 1846 tumor cells in 10 μl Cibachrome Blue agarose (Amicon) were injected subcutaneously in the left lower quadrant of the pouch with a Hamilton syringe.
The pouch was then reinserted and animals were kept under observation until recovered from anaesthesia.
The animals were dosed daily with one test compound, starting one day before stimulus injection and continuing until observation. The test compounds were dissolved in a minimum volume of ethanol and diluted in sterile phosphate buffer solution. […]
Either five days or twelve days after the EGF or tumor cell injection, animals were anaesthetized by I.P. injection of the rodent anaesthetic mixture. The pouch was everted on the stage and examined under the stereomicroscope. Pictures were taken with a 35 mm using Kodak Tungsten 50 professional films.
The following subjective scoring was used for evaluating the photographs:
1: minimal branching of vessels in the vicinity of injection site.
2: new vessels reach injection site, area involved is minimal (<50% of area surrounding injection site).
3: many vessels reach and cross injection site, new vessels are tortuous, (>50% of area surrounding injection site).
4: "full blown", many tortuous vessels, leakages, hemorrhages, 100% of area around injection site, invasion of new vessels into non-injected areas.
Results are expressed as the mean of the score. The results are shown in Tables 1 and 2 are percent inhibition of HCP Stimulus.

As for `CCC(=O)O[C@]1(C(=O)OC)[C@@H](C)C[C@H]2[C@@H]3CCC4=CC(=O)C=C[C@]4(C)[C@@]3(F)[C@@H](O)C[C@@]21C` [compound 1], the IC50 at glucocorticoid receptor stood at 2 nM. For the same compound, the “% Inhibition HCP Stimulus Epidermal Growth Factor” value in the assay with Epidermal Growth Factor is 70% and 77%.

For the compound `CCC(=O)O[C@]1(C(=O)OC)[C@@H](C)C[C@H]2[C@@H]3CC(F)C4=C(F)C(=O)C=C[C@]4(C)[C@@]3(F)[C@@H](O)C[C@@]21C` (stereo partly drawn) [compound 3], at glucocorticoid receptor, the IC50 was found to be 15 nM. Further, the “% Inhibition HCP Stimulus Epidermal Growth Factor” value in the assay with Epidermal Growth Factor is 95% and 91%.

On to `CCCC(=O)O[C@]1(C(=O)OC)[C@@H](C)C[C@H]2[C@@H]3CC(F)C4=CC(=O)C=C[C@]4(C)[C@@]3(F)[C@@H](O)C[C@@]21C` (stereo partly drawn) [compound 4], for which the IC50 at glucocorticoid receptor was 0.25 nM. In addition, the “% Inhibition HCP Stimulus Epidermal Growth Factor” value with Epidermal Growth Factor is 100% and 78%.

Take `CCC(=O)O[C@]1(C(=O)OC)[C@H](C)C[C@H]2[C@@H]3CC(F)C4=CC(=O)C=C[C@]4(C)[C@@]3(F)[C@@H](O)C[C@@]21C` (stereo partly drawn) [compound 7]: the half-inhibitory concentration (IC50) at glucocorticoid receptor was 0.25 nM. In addition, the “% Inhibition HCP Stimulus Epidermal Growth Factor” value in the assay on Epidermal Growth Factor is on record as 57%.

For `CCC(=O)O[C@]1(C(=O)OC)[C@H](C)C[C@H]2[C@@H]3CC(F)C4=C(F)C(=O)C=C[C@]4(C)[C@@]3(F)[C@@H](O)C[C@@]21C` (stereo partly drawn) [compound 8], the IC50 on glucocorticoid receptor is 0.25 nM. In addition, the “% Inhibition HCP Stimulus Epidermal Growth Factor” value in the assay with Epidermal Growth Factor was 100% and 72% and 82%.

For `CCCC(=O)O[C@]1(C(=O)OC)[C@H](C)C[C@H]2[C@@H]3CC(F)C4=CC(=O)C=C[C@]4(C)[C@@]3(F)[C@@H](O)C[C@@]21C` (stereo partly drawn) [compound 9], on glucocorticoid receptor, the IC50 is 0.025 nM. Besides, in the assay with Epidermal Growth Factor, the “% Inhibition HCP Stimulus Epidermal Growth Factor” value was found to be 100%.

The IC50 is the concentration that inhibits the measured activity by half.
